Source: PubChem BioAssay AID328 (DTP/NCI, 2004)
Values joined by “and” are separate entries in the source; they are usually repeats but may differ in a detail not shown here. Equal values may be shown once. Inconclusive results and toxic doses are left out.

Test system: BDF1 mice, P388 leukemia ip, median survival T/C
Assay: NCI In Vivo Anticancer Drug Screen. Data for tumor model P388 Leukemia (intraperitoneal) in B6D2F1 (BDF1) mice
Settings: endpoint: median survival time, higher = longer survival
Method in brief: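 Vehicle-dosed animals serve as the reference; survival of compound-dosed, tumour-implanted mice is divided by it.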

[1] = dose: 100.0 mg/kg/injection, schedule: Q04DX003 (ip), vehicle: Klucel (hydroxypropylcellulose) (HPC)
[2] = dose: 200.0 mg/kg/injection, schedule: Q04DX003 (ip), vehicle: Klucel (hydroxypropylcellulose) (HPC)
[3] = dose: 100.0 mg/kg/injection, schedule: Q01DX009 (ip), vehicle: Klucel (hydroxypropylcellulose) (HPC)
[4] = dose: 6.25 mg/kg/injection, schedule: Q01DX009 (ip), vehicle: saline with Tween-80
[5] = dose: 12.5 mg/kg/injection, schedule: Q01DX009 (ip), vehicle: saline with Tween-80
[6] = dose: 25.0 mg/kg/injection, schedule: Q01DX009 (ip), vehicle: saline with Tween-80
[7] = dose: 50.0 mg/kg/injection, schedule: Q01DX009 (ip), vehicle: saline with Tween-80
[8] = dose: 200.0 mg/kg/injection, schedule: Q01DX009 (ip), vehicle: saline with Tween-80
[9] = dose: 200.0 mg/kg/injection, schedule: Q01DX009 (ip), vehicle: Klucel (hydroxypropylcellulose) (HPC)
[10] = dose: 400.0 mg/kg/injection, schedule: Q01DX009 (ip), vehicle: Klucel (hydroxypropylcellulose) (HPC)
[11] = dose: 400.0 mg/kg/injection, schedule: Q04DX003 (ip), vehicle: Klucel (hydroxypropylcellulose) (HPC)
[12] = dose: 25.0 mg/kg/injection, schedule: Q04DX003 (ip), vehicle: saline

## Cn1c2nc3ccccc3c-2nc2ccccc21
dose: 12.5 mg/kg/injection, schedule: Q04DX003 (ip), vehicle: Klucel (hydroxypropylcellulose) (HPC)
  T/C: 94 % of control
dose: 25.0 mg/kg/injection, schedule: Q04DX003 (ip), vehicle: Klucel (hydroxypropylcellulose) (HPC)
  T/C: 98 % of control
dose: 50.0 mg/kg/injection, schedule: Q04DX003 (ip), vehicle: Klucel (hydroxypropylcellulose) (HPC)
  T/C: 103 % of control
[1]
  T/C: 101 % of control
[2]
  T/C: 116 % of control

## O=c1[nH]cc(F)c(=O)[nH]1.[Tl]
dose: 6.25 mg/kg/injection, schedule: Q01DX009 (ip), vehicle: Klucel (hydroxypropylcellulose) (HPC)
  T/C: 117 % of control
dose: 12.5 mg/kg/injection, schedule: Q01DX009 (ip), vehicle: Klucel (hydroxypropylcellulose) (HPC)
  T/C: 102 % of control and 110 % of control
dose: 25.0 mg/kg/injection, schedule: Q01DX009 (ip), vehicle: Klucel (hydroxypropylcellulose) (HPC)
  T/C: 87 % of control
[3]
  T/C: 91 % of control

## CCN(CC)c1ccc2c(C)cc(=O)oc2c1
[4]
  T/C: 100 % of control
[5]
  T/C: 94 % of control
[6]
  T/C: 94 % of control
[7]
  T/C: 94 % of control
dose: 100.0 mg/kg/injection, schedule: Q01DX009 (ip), vehicle: saline with Tween-80
  T/C: 92 % of control
[8]
  T/C: 94 % of control

## CC(C)CCC(=O)C(C)C
dose: 100.0 mg/kg/injection, schedule: Q04DX003 (ip), vehicle: saline with Tween-80
  T/C: 91 % of control
dose: 200.0 mg/kg/injection, schedule: Q04DX003 (ip), vehicle: saline with Tween-80
  T/C: 100 % of control
dose: 400.0 mg/kg/injection, schedule: Q04DX003 (ip), vehicle: saline with Tween-80
  T/C: 95 % of control

## CC1(CBr)Oc2ccccc2O1
[3]
  T/C: 104 % of control
[1]
  T/C: 100 % of control
[9]
  T/C: 108 % of control
[2]
  T/C: 95 % of control
[10]
  T/C: 116 % of control
[11]
  T/C: 108 % of control

## CCOC(=O)C1CCCN1C(=O)c1c2nc3c(C(=O)N4CCCC4C(=O)OCC)ccc(C)c3oc-2c(C)c(=O)c1N (stereo not drawn)
dose: 100.0 mg/kg/injection, schedule: Q04DX002 (ip), vehicle: saline with Tween-80
  T/C: 90 % of control
dose: 200.0 mg/kg/injection, schedule: Q04DX002 (ip), vehicle: saline with Tween-80
  T/C: 101 % of control
dose: 400.0 mg/kg/injection, schedule: Q04DX002 (ip), vehicle: saline with Tween-80
  T/C: 90 % of control

## O=Cc1ccc([N+](=O)[O-])s1
dose: 3.13 mg/kg/injection, schedule: Q01DX009 (ip), vehicle: saline with Tween-80
  T/C: 99 % of control
[4]
  T/C: 99 % of control and 118 % of control
[5]
  T/C: 115 % of control
[6]
  T/C: 123 % of control
[7]
  T/C: 118 % of control

## O=C1OC(=Nc2cccc([N+](=O)[O-])c2)c2ccccc21
[7]
  T/C: 150 % of control
[8]
  T/C: 97 % of control

## CC(N)COCc1ccccc1 (stereo not drawn)
[12]
  T/C: 104 % of control
dose: 50.0 mg/kg/injection, schedule: Q04DX003 (ip), vehicle: saline
  T/C: 95 % of control

## CCCOCNC(=O)c1cccnc1
dose: 100.0 mg/kg/injection, schedule: Q01DX001 (ip), vehicle: saline
  T/C: 95 % of control
dose: 200.0 mg/kg/injection, schedule: Q01DX001 (ip), vehicle: saline
  T/C: 100 % of control
dose: 400.0 mg/kg/injection, schedule: Q01DX001 (ip), vehicle: saline
  T/C: 100 % of control

## N#Cc1cn(C2OC(CO)C(O)C2O)c2nc(Cl)nc(N)c12 (stereo not drawn)
dose: 6.25 mg/kg/injection, schedule: Q04DX003 (ip), vehicle: saline
  T/C: 112 % of control
dose: 12.5 mg/kg/injection, schedule: Q04DX003 (ip), vehicle: saline
  T/C: 166 % of control
[12]
  T/C: 166 % of control

## CC(=O)c1ccc(Cc2ccc(C(C)=O)cc2)cc1
[3]
  T/C: 104 % of control
[1]
  T/C: 100 % of control
[9]
  T/C: 104 % of control
[2]
  T/C: 109 % of control
[10]
  T/C: 100 % of control
[11]
  T/C: 95 % of control
